# Where a name gives a salt, the structure may show the parent alone. Read-outs that look alike come from different tables or passages of the source.
# What was measured:
# [1] = test system: breast cancer; conditions: Cancer Research, Vol. 42, Suppl. 8:3261s (1982); cited from earlier work
# [2] = molecular target: T1, aromatase (Rattus norvegicus, UniProt P22443); test: Aromatase inhibition in the rat ovarian microsome assay; type: biochemical
# T1 construct: ovarian microsomes are obtained from rats treated with pregnant mares serum gonadotropin; from tissue; host or cells: ovarian microsomes from rats treated with pregnant mares serum gonadotropin
# T1 sequence (P22443 1-508): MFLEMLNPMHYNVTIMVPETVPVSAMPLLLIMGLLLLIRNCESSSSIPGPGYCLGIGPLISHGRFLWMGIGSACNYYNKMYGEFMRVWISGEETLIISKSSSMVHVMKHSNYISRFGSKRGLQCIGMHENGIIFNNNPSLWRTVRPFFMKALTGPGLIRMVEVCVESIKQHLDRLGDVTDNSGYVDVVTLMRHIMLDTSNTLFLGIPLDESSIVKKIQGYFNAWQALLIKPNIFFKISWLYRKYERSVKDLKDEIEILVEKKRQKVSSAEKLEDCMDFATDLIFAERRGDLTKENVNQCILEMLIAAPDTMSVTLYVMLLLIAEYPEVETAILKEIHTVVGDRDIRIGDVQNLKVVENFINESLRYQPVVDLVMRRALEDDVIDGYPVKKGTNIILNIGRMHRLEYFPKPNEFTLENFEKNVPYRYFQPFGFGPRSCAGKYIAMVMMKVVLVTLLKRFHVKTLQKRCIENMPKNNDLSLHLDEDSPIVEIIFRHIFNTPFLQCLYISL
# Procedure: In this test system, ovarian microsomes are obtained from rats treated with pregnant mares serum gonadotropin. Test compounds are added to reaction vials containing 0.1 μM 4-androstene-3,17-dione, 100,000 dpm 1,2[^3 H]-androstenedione, the microsomes and a NADPH generating system. The concentrations of the inhibitors tested ranged between 0.005 and 10 μM.
# [3] = test system: aromatization; test: Estrogen synthesis inhibition in rats: ovarian steroid concentrations; type: in vivo, rat (immature female Wistar); conditions: ovary, 7 days
# Procedure: (§1) Immature female Wistar rats (45-55 grams) were divided into control and test groups of 4-8 animals each. Test compounds were administered for seven days as a component of the diet. Control animals received diet without the test compound. Beginning on the fourth day of the test, all animals treated with the test compound and one half of the control animals were given a subcutaneous injection of 1.0 mg of testosterone propionate in corn oil. The remaining control animals received only an equivalent volume of corn oil. On the seventh day of the test, rats treated with testosterone propionate were injected subcutaneously with 100 μCi of [^3 H]-testosterone in 50 μl of 3:1 (v/v) saline-ethanol.
# Ovaries from rats treated with [^3 H]-testosterone were excised, cleaned of extraneous tissue, and homogenized in 2.5 ml of a 1.0 mM potassium phosphate buffer containing 3.0 mM MgCl2.6H2 O, 320 mM sucrose, and 0.25% Triton X-100 (polyethylene glycol p-isooctyl phenyl ether, Rohm and Hass) at pH 6.5. The ovarian steroids were extracted with 1.5 ml of 9:1 (v/v) toluene/ethanol to which had been added 25 to 100 mcg each of unlabelled estradiol, estriol, and estrone, and approximately 1000 dpm of [^14 C]-estradiol. The samples were vortexed, centrifuged at 500×g for 10 minutes, and the organic phase was transferred to a conical vial. Two additional extractions were performed on the residue in the same way. The pooled organic extracts were evaporated for subsequent thin-layer chromatography.
# Ovarian proteins were precipitated by the addition of 5.0 ml of ethanol to the remaining aqueous phase. After an overnight incubation at 4° C., the samples were centrifuged at 1500×g for 10 minutes. The supernatant was discarded and the pellet was dissolved in 0.3N potassium hydroxide. Protein was determined according to the method of Bradford, Analytical Biochemistry, 72, 248 (1976).
# The organic residue from each above extraction was redissolved in 9:1 (v/v) dichloromethane/methanol. The solution of each sample was applied to separate silica gel thin layer chromatography plates which contained a fluorescent indicator. The plates were developed in the first dimension with 160:38:1.5:0.5 (v/v/v/v) dichloromethane/ethyl acetate/methanol/acetic acid to within 3 cm of the top of the plate. After air-drying, the plate was developed in the second dimension with 180:19:1 (v/v/v) dichloromethane/methanol/ammonium hydroxide. The plate was air-dried and viewed under 254 nm UV light.
# The visible spots were marked and the plates were sprayed with primulin (0.001% in 4:1 v/v acetone/water) according to the method of Wright, J. Chromatography, 59, 220 (1971) which allowed for the identification of additional steroids under 365 nm UV light. The spots were scraped from the plate using a glass wool plugged Pasteur pipet attached to a vacuum line. The steroids were eluted directly into scintillation vials by the addition of 0.2 ml of dichloromethane followed by two washes each of 2.0 ml of methanol. The organic solvent was evaporated and 10.0 ml of scintillation fluid (Beckman Ready Solv-NA) was added to the vials. Samples were analyzed by liquid scintillation spectrometry. Corrections were made based on the recoveries of the [^14 C]-steroid. Steroid concentrations are expressed as femtomoles per milligram protein.
# [4] = test system: DMBA-induced mammary tumors; test: DMBA-induced mammary tumor inhibition; type: in vivo, rat (female Sprague-Dawley); conditions: Test I, 20 mg/kg, once daily by gavage in corn oil
# Procedure: Mammary tumors were produced in female Sprague-Dawley rats which were 50-60 days old by the gavage administration of 20 mg of 7,12-dimethylbenz[α]anthracene (DMBA). About six weeks after DMBA administration, the mammary glands were palpated at weekly intervals for the appearance of tumors. Whenever one or more tumors appeared and were measurable in an animal, that animal was selected for experimentation. […] Each control and test group contained 8 animals. The test compound was administered in corn oil and administered once daily by gavage.
# Every experiment included a group of control rats having tumors that were given corn oil vehicle by gavage. […] The area of each tumor was calculated by multiplying the shortest and longest diameters of the tumor. The treatment and measurement of animals continued for five weeks at which time the final areas of the tumors were determined. The change in the mean tumor area was determined, and the means change was analyzed for its significance using Dunnett's t-test.
# [5] = test system: aromatization; test: Estrogen synthesis inhibition in rats: uterine weight; type: in vivo, rat (immature female Wistar); conditions: 7 days, testosterone propionate treated
# Procedure: as §1
# After two hours, the animals were killed by decapitation. Uteri were isolated, trimmed of extraneous connective tissue, and weighed. […] In the control animals treated with testosterone propionate, estrogens produced by aromatization stimulated the uterus resulting in an increase in weight.
# [6] = rat ovarian microsomes, substrate (androstenedione) 0.1 μM, read-out: EC50 (concentration required to achieve 50% inhibition of aromatase activity)
# [7] = Test I, 30 ppm in feed (approx. 3 mg/kg/day)
# [8] = Test I, 300 ppm in feed (approx. 30 mg/kg/day)
# [9] = Test II, 200 ppm in feed (approx. 20 mg/kg/day)
structure (smiles),measurement,setting,value
CCC1(c2ccc(N)cc2)CCC(=O)NC1=O (centres unmarked) [aminoglutethimide],effect in treatment of breast cancer,[1],beneficial effect
"N#CC(Cc1c[nH]cn1)(c1ccccc1)c1ccc(Cl)cc1 (stereo not drawn) [α-(4-chlorophenyl)-α-phenyl-imidazole-4(5)-propionitrile, maleic acid salt]",EC50,[2],72 nM
"c1ccc(C(Cc2c[nH]cn2)c2ccccc2)cc1 [4(5)-(2,2-diphenylethyl)imidazole, 4(5)-(2,2-Diphenylethyl)imidazole]",EC50,[2],94 nM
"NC(=O)C(Cc1c[nH]cn1)(c1ccc(Cl)cc1)c1ccc(Cl)cc1 [α,α-Bis(4-chlorophenyl)-1H-imidazole-4(5)-propionamide hydrochloride]",EC50,[2]; [6],< 50 nM
"NC(=O)C(Cc1c[nH]cn1)(c1ccccc1)c1ccccc1 [α,α-Diphenylimidazole-4-propionamide hydrochloride]",EC50,[2]; [6],118 nM
"COc1ccc(C(C#N)(Cc2c[nH]cn2)c2ccccc2)cc1 (stereo not drawn) [α-(4-methoxyphenyl)-α-phenyl-imidazole-4(5)-propionitrile, maleic acid salt]",EC50,[2]; [6],180 nM
"N#CC(Cc1c[nH]cn1)(c1ccc(Cl)cc1)c1ccc(Cl)cc1 [α,α-bis(4-chlorophenyl)-imidazole-4(5)-propionitrile, maleic acid salt]","Mean Steroid Concentration, estradiol",[3]; [7],1.36 femtomoles per milligram of protein
same,"Mean Steroid Concentration, estriol",[3]; [7],0.72 femtomoles per milligram of protein
same,"Mean Steroid Concentration, estrone",[3]; [7],0.11 femtomoles per milligram of protein
same,"Mean Steroid Concentration, estradiol",[3]; [8],1.06 femtomoles per milligram of protein
same,"Mean Steroid Concentration, estriol",[3]; [8],0.23 femtomoles per milligram of protein
same,"Mean Steroid Concentration, estrone","[3]; Test I, 300 ppm in feed (approx. 30 mg/kg/day), + p < 0.05 vs testosterone-treated control",0.00 femtomoles per milligram of protein
same,"Mean Tumor Area, Finish","[4]; 5 weeks, control 78.3 to 980.8, + p < 0.05 vs control",389.7 mm^2
same,"Mean Tumor Area, Start",[4]; start of test (baseline),67.0 mm^2
same,Mean Uterine Weight,"[5]; Test I, 30 ppm in feed (approx. 3 mg/kg/day), 4 animals",166.0 mg
same,Mean Uterine Weight,"[5]; Test I, 300 ppm in feed (approx. 30 mg/kg/day), 5 animals, + p < 0.05 vs testosterone-treated control",141.6 mg
same,EC50,[2]; [6],62 nM
N#CC(Cc1c[nH]cn1)(c1ccccc1)c1cccnc1 (stereo not drawn) [α-[1-imidazol-4(5)-ylmethyl]-α-phenyl-3-pyridineacetonitrile dihydrochloride],EC50,[2]; [6],560 nM
"N#CC(Cc1c[nH]cn1)(c1ccccc1)c1ccccc1 [α,α-diphenylimidazole-4(5)-propionitrile, maleic acid salt]",EC50,[2]; [6],165 nM
N#CC(Cc1c[nH]cn1)(c1ccccc1)c1ccc(C(F)(F)F)cc1 (stereo not drawn) [α-phenyl-α-(4-trifluoromethylphenyl)-1H--imidazole-4(5)-propionitrile],"Mean Steroid Concentration, estradiol",[3]; [9],1.01 femtomoles per milligram of protein
same,"Mean Steroid Concentration, estriol",[3]; [9],0.31 femtomoles per milligram of protein
same,"Mean Steroid Concentration, estrone",[3]; [9],0.00 femtomoles per milligram of protein
same,Mean Uterine Weight,"[5]; Test II, 200 ppm in feed (approx. 20 mg/kg/day), 5 animals, + p < 0.05 vs testosterone-treated control",142.2 mg
same,EC50,[2]; [6],73 nM
C[C@]12C=CC(=O)C=C1CC[C@@H]1[C@@H]2CC[C@]2(C)OC(=O)CC[C@@H]12 [testolactone],effect in treatment of breast cancer,[1],beneficial effect
N#CC(Cc1c[nH]cn1)(c1ccccc1)c1cccc(Cl)c1 (stereo not drawn) [α-(3-chlorophenyl)-α-phenyl-imidazole-4(5)-propionitrile hydrochloride],EC50,[2]; [6],78 nM
